According to PMC7018972, “Novel and selective inactivators of Triosephosphate isomerase with anti-trematode activity” (Scientific Reports, 2020):
Read-outs that look alike come from different tables or passages of the source.

Biological target: Fasciola hepatica TIM (FhTIM) (Fasciola hepatica, UniProt S4UI50)
Test: Inhibition of recombinant FhTIM, coupled enzyme assay
Format: biochemical
Protocol: Expression and purification of proteins: FhTIM, RabbitTIM and HsTIM were expressed in Escherichia coli and purified as described in the literature[31],[37]. […] Before use, extensive dialysis against 100 mM triethanolamine/10 mM EDTA (pH 7.4) was performed. […] Enzymatic activity was determined following the conversion of glyceraldehydes-3-phosphate into dihydroxyacetone phosphate in a coupled enzyme assay. The decrease in absorbance at 340 nm was followed in a multiplate reader VarioskanTM Flash Multimode Reader (Thermo ScientificTM, Waltham, MA, USA) at 38 °C. The reaction mixture (1 mL, pH 7.4) contained 100 mM triethanolamine, 10 mM EDTA, 0.2 mM NADH, 1 mM glyceraldehydes-3-phosphate and 0.9 units of α-glycerol phosphate dehydrogenase. The reaction was initiated by the addition of 5 ng/mL of the TIM of interest. For the inhibition studies, TIM was incubated at a concentration of 5 mg/mL in a buffer containing 100 mM triethanolamine, 10 mM EDTA, pH 7.4 and 10% of DMSO at 37 °C for 1 h. The mixture also contained the compounds, dissolved in DMSO, at the indicated concentrations. After 1 h, 10 µL were withdrawn and added to a final volume of 100 µL of the reaction mixture for the activity assay. The inhibition assay was performed in a 96-well microplate. […] The experiments were performed in triplicate in two independent experiments.

[1] = Table 1S, screening of 340 compounds in FhTIM, table head prints no unit, µM per b8/b9, read-out: IC50
[2] = recombinant FhTIM, 1 h incubation with compound at 37 °C, read-out: IC50

Fasciola hepatica TIM (FhTIM), sequence (S4UI50 entry or part of it): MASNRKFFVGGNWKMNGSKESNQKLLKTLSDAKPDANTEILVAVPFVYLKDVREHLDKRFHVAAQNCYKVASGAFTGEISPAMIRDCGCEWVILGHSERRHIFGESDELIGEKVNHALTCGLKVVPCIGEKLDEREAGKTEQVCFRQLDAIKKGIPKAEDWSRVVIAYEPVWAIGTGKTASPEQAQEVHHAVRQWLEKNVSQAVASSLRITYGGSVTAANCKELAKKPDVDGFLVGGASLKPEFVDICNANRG

Row | SMILES | IC50 [1] [µM] | also measured
1 | C=CCNC(=S)NN=Cc1ccc2ccccc2c1 [Compound 296] | > 100 | 
2 | C=CCNC(=S)NN=CC=Cc1ccccc1 [Compound 300] | > 100 | 
3 | C=CCn1c(-c2ccc(Cl)cc2)csc1=NN=Cc1ccc2no[n+]([O-])c2c1 [Compound 304] | > 100 | 
4 | C=CCn1c(-c2ccc(Br)cc2)csc1=NN=CC=Cc1ccco1 [Compound 306] | 50 to 100 | 
5 | S=C(NN=CC=CC=Cc1cccs1)Nc1ccccc1 [Compound 310] | 50 to 100 | IC50 [2]: 79 ± 7 µM
6 | C=CCn1c(-c2ccc(Cl)cc2)csc1=NN=C/C=C/C=C/c1cccs1 [Compound 311] | 50 to 100 | 
7 | C=CCN1C(=O)CSC1=NN=CC=CC=Cc1cccs1 [Compound 312] | > 100 | 
8 | C=CCn1c(C(=O)N2CCN(CC=Cc3ccccc3)CC2)csc1=NN=CC=Cc1ccco1 [Compound 314] | > 100 | 
9 | [O-][n+]1onc(-c2ccccc2)c1CN1CCOCC1 [Compound 352] | > 100 | 
10 | Cc1nnc[n+]([O-])c1C=Cc1ccc([N+](=O)[O-])o1 [Compound 359] | > 100 | 
11 | Cc1nnc[n+]([O-])c1/C=C/c1ccc([N+](=O)[O-])s1 [Compound 361] | 100 | 
12 | COc1ccc(NC(=O)CCl)cc1 [Compound 379] | > 100 | 
13 | NNC(=O)Nc1ccc(Cl)cc1 [Compound 397] | > 100 | 
14 | O=[N+]([O-])c1ccc2c(c1)c(O)nn2Cc1ccccc1CN1CCCCC1 [Compound 456] | > 100 | 
15 | O=[N+]([O-])c1ccc2c(c1)c(O)nn2CCOCCN1CCCCC1 [Compound 459] | > 100 | 
16 | COc1nn(CCOCCN(C)C)c2ccc([N+](=O)[O-])cc12 [Compound 474] | > 100 | 
17 | CN(C)CCCCCn1nc(O)c2cc([N+](=O)[O-])ccc21 [Compound 477] | > 100 | 
18 | O=[N+]([O-])c1ccc2c(c1)c(O)nn2CCCCCN1CCCCC1 [Compound 481] | 50 to 100 | 
19 | CN(C)Cc1ccccc1Cn1nc(O)c2cc([N+](=O)[O-])ccc21 [Compound 482] |  | IC50 (Figure 1, ranges of inhibitory activity, read-out: IC50 range): < 50 µM; IC50 [2]: 30 ± 3 µM
20 | CN(CC=Cc1ccccc1)Cc1ccc2c(c1)=[N+]([O-])C(C)(C)[N+]=2[O-] [Compound 499] | > 100 | 
21 | N#Cc1c2ccccc2[n+]([O-])n1C/C=C/c1ccccc1 [Compound 500] | > 100 | 
22 | N#Cc1c2ccccc2[n+]([O-])n1CCC=Cc1ccc(Cl)cc1 [Compound 501] | > 100 | 
23 | COc1nn(CCOCCN(C)CC=Cc2ccccc2)c2ccc([N+](=O)[O-])cc12 [Compound 504] | > 100 | 
24 | CN(CC=Cc1ccccc1)CCCCCn1nc(OCc2ccccc2)c2cc([N+](=O)[O-])ccc21 [Compound 507] | > 100 | 
25 | COc1nn(CCOCCI)c2ccc([N+](=O)[O-])cc12 [Compound 514] | > 100 | 
26 | O=[N+]([O-])c1ccc2c(c1)c(O)nn2CCOCCBr [Compound 517] | > 100 | 
27 | O=[N+]([O-])c1ccc2c(c1)c(OCc1ccccc1)nn2CCCCCBr [Compound 518] | 100 | 

Row | SMILES | IC50 [1] [µM] | also measured
28 | CCOC(=O)c1nc2ccc([N+](=O)[O-])cc2n1OC(=O)OCC(C)C [Compound 545] | 100 | 
29 | CCCCOC(=O)c1nc2ccc([N+](=O)[O-])cc2n1O [Compound 550] | > 100 | 
30 | NC1=NC(=O)N=C(N)C1=Cc1ccco1 [Compound 575] | 50 to 100 | 
31 | N#CC(C#N)=CC=Cc1ccco1 [Compound 579] | > 100 | 
32 | O=[N+]([O-])c1ccc(C=Cc2ccc3nonc3c2)cc1 [Compound 584] | > 100 | 
33 | [O-][n+]1onc2ccc(CN3CCN(CC=Cc4ccccc4)CC3)cc21 [Compound 609] | > 100 | 
34 | NN1CCSCC1 [Compound 616] | > 100 | 
35 | [O-][n+]1onc2cc(F)c(F)cc21 [Compound 627] | > 100 | 
36 | O=c1c2cc([N+](=O)[O-])ccc2n2n1CCCCC2 [Compound 637] | > 100 | 
37 | Cc1nnc[n+]([O-])c1C=Cc1ccc(N(C)C)cc1 [Compound 641] | > 100 | 
38 | O=[N+]([O-])c1ccc2c(c1)c(O)nn2CCOCCN1CCSCC1 [Compound 642] | > 100 | 
39 | N#Cc1c(-c2ccccc2)no[n+]1[O-] [Compound 650] | > 100 | 
40 | CNc1ccc(C)cc1[N+](=O)[O-] [Compound 651] | > 100 | 
41 | [O-][n+]1onc2ncc(Cl)cc21 [Compound 671] | > 100 | 
42 | O=C1CCCC2=C1C(c1ccc(C(=O)O)cc1)c1ccc3ccccc3c1N2 (centres unmarked) [Compound 698] | > 100 | 
43 | O=C1CCCC2=C1C(c1cccc(Br)c1)c1ccc3ccccc3c1N2 (centres unmarked) [Compound 699] | > 100 | 
44 | CC(=NNC(N)=O)c1cccc(C(C)=NNC(N)=O)n1 [Compound 701] | > 100 | 
45 | O=[N+]([O-])c1c(Cl)cc2c(no[n+]2[O-])c1N1CCN(c2c([N+](=O)[O-])c(Cl)cc3c2no[n+]3[O-])CC1 [Compound 704] | > 100 | 
46 | COc1ccc(CN2c3nc(-c4ccccc4OC)[nH]c3C(N)=NS2(=O)=O)cc1 [Compound 707] | > 100 | 
47 | NNC(=O)c1ccc2c(c1)OCO2 [Compound 711] | > 100 | 
48 | Cc1ncc([N+](=O)[O-])n1CCI [Compound 712] | > 100 | 
49 | NC1=NS(=O)(=O)N=C(N)C1N [Compound 723] | > 100 | 
50 | O=[N+]([O-])c1cc(CI)ccc1F [Compound 769] | 100 | 
51 | O=C(CBr)C(=O)CSC(=NN=Cc1ccccc1)Nc1ccccc1 [Compound 777] | > 100 | 
52 | O=S(=O)(O)c1ccc(C=NN=c2scc(-c3csc(=NN=Cc4ccc(S(=O)(=O)O)o4)n3-c3ccccc3)n2-c2ccccc2)o1 [Compound 781] | > 100 | 
53 | C=CCn1c(-c2csc(=NN=Cc3ccccc3)n2-c2ccccc2)csc1=NN=CC=Cc1ccco1 [Compound 782] | > 100 | 
54 | C=CCn1c(-c2csc(=NN=Cc3ccccc3)n2-c2ccccc2)csc1=NN=Cc1ccc2ccccc2c1 [Compound 783] | > 100 | 

Continued, in another order:

Row | IC50 [1] [µM] | SMILES | also measured
55 | > 100 | C=CCNC(=S)NN=Cc1cncc(Br)c1 [Compound 307] | 
56 | 50 to 100 | C=CCNC(=S)NN=Cc1ccnc2ccccc12 [Compound 308] | 
57 | > 100 | O=C1CSC(=NN=C/C=C/C=C/c2cccs2)N1c1ccccc1 [Compound 313] | 
58 | > 100 | CN1CC(=Cc2ccccc2)C(=O)C(=Cc2ccccc2)C1 [Compound 357] | 
59 | > 100 | O=C1CC(=O)N(Cc2ccccc2)S(=O)(=O)N1Cc1ccccc1 [Compound 358] | 
60 | > 100 | Cc1nnc[n+]([O-])c1CC(c1ccc([N+](=O)[O-])cc1)N1CCOCC1 (centres unmarked) [Compound 360] | 
61 | > 100 | COc1ccc(C=Cc2cnnc[n+]2[O-])cc1 [Compound 365] | 
62 | > 100 | COc1nn(CCCCCN(C)C)c2ccc([N+](=O)[O-])cc12 [Compound 469] | 
63 | > 100 | O=C(O)c1ccc(Cl)[n+]([O-])c1 [Compound 472] | 
64 | > 100 | Cc1ccc(-n2c(C#N)c3ccccc3[n+]2[O-])cc1 [Compound 476] | 
65 | > 100 | N#Cc1c2ccccc2[n+]([O-])n1-c1ccc(Cl)cc1 [Compound 480] | 
66 | > 100 | N#Cc1c2ccccc2[n+]([O-])n1CCCl [Compound 483] | 
67 | > 100 | CC(C)OC(CC[P+](c1ccccc1)(c1ccccc1)c1ccccc1)OC(C)C [Compound 497] | 
68 | > 100 | O=[N+]([O-])c1ccc2c(c1)c(OCc1ccccc1)nn2CCCCCN1CCN(CC=Cc2ccccc2)CC1 [Compound 505] | 
69 | > 100 | CN(C/C=C/c1ccccc1)CCOCCn1nc(OCc2ccccc2)c2cc([N+](=O)[O-])ccc21 [Compound 508] | 
70 | > 100 | O=[N+]([O-])c1ccc2c(c1)c(OCc1ccccc1)nn2CCOCCBr [Compound 516] | 
71 | 50 to 100 | CC1(C)[N+]([O-])=c2ccc(Cl)cc2=[N+]1[O-] [Compound 532] | 
72 | > 100 | CCOC(=O)c1nc2ccc([N+](=O)[O-])cc2n1O [Compound 546] | 
73 | > 100 | CCOC(=O)c1n(Cc2ccc(N(C)C)cc2)c2ccc([N+](=O)[O-])cc2[n+]1[O-] [Compound 553] | 
74 | > 100 | [O-][N+]1=c2ccccc2=[N+]([O-])C12CCCC2 [Compound 633] | 
75 | > 100 | CCCCNCCCCCn1nc(OC)c2cc([N+](=O)[O-])ccc21 [Compound 643] | 
76 | > 100 | COc1ccc(CNCC(=O)O)cc1 [Compound 659] | 
77 | > 100 | CCOC(=O)On1c(C(=O)OCC)nc2ccc([N+](=O)[O-])cc21 [Compound 660] | 
78 | 100 | N#CSc1ccc(C=O)cc1[N+](=O)[O-] [Compound 670] | 
79 | 50 to 100 | NC(N)=N/N=C/c1ccc(O)cc1 [Compound 675] | 
80 | > 100 | Cc1ccc2c(c1)nc(-c1ccc(N(C)C)cc1)n2CCc1ccccc1 [Compound 696] | 
81 | > 100 | NC1=NS(=O)(=O)N(CCC2CCCCC2)c2nc(-c3ccc(F)cc3)[nH]c21 [Compound 706] | 
82 | > 100 | NNC(=O)c1ccccn1 [Compound 717] | 
83 | > 100 | O=C(CBr)c1csc(=NN=Cc2ccccc2)n1-c1ccccc1 [Compound 775] | 
84 | > 100 | O=S(=O)(O)c1ccc(C=NN=c2scc(-c3csc(=NN=Cc4ccccc4)n3-c3ccccc3)n2-c2ccccc2)o1 [Compound 784] | 
